{"source": "patent US20210161855A1", "about": "“5-LIPOXYGENASE ANTAGONISTS” (INSTITUTO DE MEDICINA MOLECULAR JOÃO LOBO ANTUNES, priority 2017, published 2021)", "key": {"EP4": {"molecular_target": "EP4 (Homo sapiens, UniProt P35408)", "sequence (P35408 whole entry)": "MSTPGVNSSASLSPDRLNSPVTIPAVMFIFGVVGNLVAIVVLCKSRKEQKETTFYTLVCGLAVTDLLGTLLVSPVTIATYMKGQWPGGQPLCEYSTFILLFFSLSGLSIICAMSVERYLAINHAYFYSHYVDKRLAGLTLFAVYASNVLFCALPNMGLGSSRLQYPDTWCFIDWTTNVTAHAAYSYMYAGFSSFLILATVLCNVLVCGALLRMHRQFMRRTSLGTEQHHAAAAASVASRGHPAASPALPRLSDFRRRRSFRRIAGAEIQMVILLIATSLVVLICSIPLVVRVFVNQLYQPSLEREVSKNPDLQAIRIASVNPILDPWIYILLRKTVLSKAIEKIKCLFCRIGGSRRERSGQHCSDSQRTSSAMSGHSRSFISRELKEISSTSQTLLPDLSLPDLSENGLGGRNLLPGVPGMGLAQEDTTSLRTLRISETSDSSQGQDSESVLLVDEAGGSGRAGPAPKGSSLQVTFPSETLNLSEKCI", "assay": "Prostanoid EP4 receptor activation, functional assay", "format": "cell-based", "conditions": "150 μM"}, "12-lipoxygenase (12-LO)": {"molecular_target": "T1, 12-lipoxygenase (12-LO) (Homo sapiens, UniProt P18054)", "T1 sequence (P18054 1-663)": "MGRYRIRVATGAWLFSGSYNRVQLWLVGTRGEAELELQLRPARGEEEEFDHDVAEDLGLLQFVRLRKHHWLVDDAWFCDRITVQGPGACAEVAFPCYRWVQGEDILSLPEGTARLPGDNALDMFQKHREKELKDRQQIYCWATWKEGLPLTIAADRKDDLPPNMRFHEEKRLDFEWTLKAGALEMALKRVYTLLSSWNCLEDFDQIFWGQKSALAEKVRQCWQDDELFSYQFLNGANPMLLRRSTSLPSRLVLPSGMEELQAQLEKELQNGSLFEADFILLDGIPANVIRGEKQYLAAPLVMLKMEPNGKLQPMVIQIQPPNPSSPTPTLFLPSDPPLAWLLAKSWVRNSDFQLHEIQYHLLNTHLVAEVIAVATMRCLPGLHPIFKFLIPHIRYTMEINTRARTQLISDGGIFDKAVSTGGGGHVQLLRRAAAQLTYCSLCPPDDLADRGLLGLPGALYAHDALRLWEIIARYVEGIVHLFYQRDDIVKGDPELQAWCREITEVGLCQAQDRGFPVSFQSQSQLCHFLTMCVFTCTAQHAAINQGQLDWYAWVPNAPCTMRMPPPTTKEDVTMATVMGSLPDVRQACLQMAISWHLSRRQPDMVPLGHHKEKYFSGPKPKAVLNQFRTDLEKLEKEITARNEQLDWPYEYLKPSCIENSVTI", "assay": "12-LO inhibition assay, Method A (Cerep)", "format": "biochemical", "description": "(§1) Method A: 5-Lipoxygenase (5-LO), 12-lipoxygenase (12-LO) and 15-lipoxygenase-2 (15-LO-2) inhibition assays were performed at Cerep, SA (Celle l'Evescault, France) on a fee-for-service basis (Ref 0772^36, 0883^37 and 0893^38, respectively), as described in Table 1."}, "HL-60 cells": {"test_system": "HL-60 cells", "assay": "HL-60 cell viability with and without DMSO differentiation (Alamar Blue)", "format": "cell-based", "conditions": "Homo sapiens, 48 hours, n=1", "description": "Cells were fixed with […] BD fix buffer while vortexing. […] After the required incubation time, cells were washed and incubated for another hour with goat anti-rabbit Alexa fluor 488 antibody. Cells are then washed and resuspended in PBS and acquired by LSRFortessa™ flow cytometer (BD Biosciences, USA) with a 488 nm laser, a 505 nm long-pass filter and a 530/30 nm band-pass filter (for FITC detection). Data was analyzed using the FlowJo software. […] Cells were treated with varying concentration of β-lapachone for a time period of 48 hours. Cell death was analyzed using standard Alamar Blue assay. Data is represented after being normalized to the vehicle control."}, "[1]": {"molecular_target": "T2, 15-lipoxygenase-2 (15-LO-2) (Homo sapiens, UniProt O15296)", "T2 sequence (O15296 1-676)": "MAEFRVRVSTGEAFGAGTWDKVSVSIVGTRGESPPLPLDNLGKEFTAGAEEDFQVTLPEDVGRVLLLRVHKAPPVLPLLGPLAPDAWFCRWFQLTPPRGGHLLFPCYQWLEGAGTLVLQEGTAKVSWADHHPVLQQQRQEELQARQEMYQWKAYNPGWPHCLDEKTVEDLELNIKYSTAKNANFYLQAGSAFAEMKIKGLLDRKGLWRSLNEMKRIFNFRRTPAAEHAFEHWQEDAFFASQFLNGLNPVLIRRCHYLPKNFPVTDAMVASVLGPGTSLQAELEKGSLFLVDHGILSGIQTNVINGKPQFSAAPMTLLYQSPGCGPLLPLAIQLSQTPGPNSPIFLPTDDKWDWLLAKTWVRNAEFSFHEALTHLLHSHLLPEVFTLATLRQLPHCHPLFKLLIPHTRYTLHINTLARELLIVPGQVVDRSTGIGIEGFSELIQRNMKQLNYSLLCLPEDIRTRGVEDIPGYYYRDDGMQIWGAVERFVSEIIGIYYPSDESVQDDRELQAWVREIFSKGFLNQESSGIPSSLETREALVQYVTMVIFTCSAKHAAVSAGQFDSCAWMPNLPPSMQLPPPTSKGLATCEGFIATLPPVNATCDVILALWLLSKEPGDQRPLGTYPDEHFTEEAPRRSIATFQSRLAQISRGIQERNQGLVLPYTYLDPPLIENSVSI", "assay": "15-LO-2 inhibition assay, Method A (Cerep)", "format": "biochemical", "description": "as §1"}, "[2]": {"molecular_target": "Phosphodiesterase 5 (PDE5) (Homo sapiens, UniProt O76074)", "assay": "Phosphodiesterase 5 assay (Cerep)", "format": "biochemical", "conditions": "2 μM", "description": "Phosphodiesterase 5 (PDE5) assay was performed at Cerep, SA (Celle l'Evescault, France) on a fee-for-service basis (Ref 0204^39), as described in Table 2. [table]"}, "TRPV1": {"molecular_target": "TRPV1 (Homo sapiens, UniProt Q8NER1)", "sequence (Q8NER1 whole entry, species assumed)": "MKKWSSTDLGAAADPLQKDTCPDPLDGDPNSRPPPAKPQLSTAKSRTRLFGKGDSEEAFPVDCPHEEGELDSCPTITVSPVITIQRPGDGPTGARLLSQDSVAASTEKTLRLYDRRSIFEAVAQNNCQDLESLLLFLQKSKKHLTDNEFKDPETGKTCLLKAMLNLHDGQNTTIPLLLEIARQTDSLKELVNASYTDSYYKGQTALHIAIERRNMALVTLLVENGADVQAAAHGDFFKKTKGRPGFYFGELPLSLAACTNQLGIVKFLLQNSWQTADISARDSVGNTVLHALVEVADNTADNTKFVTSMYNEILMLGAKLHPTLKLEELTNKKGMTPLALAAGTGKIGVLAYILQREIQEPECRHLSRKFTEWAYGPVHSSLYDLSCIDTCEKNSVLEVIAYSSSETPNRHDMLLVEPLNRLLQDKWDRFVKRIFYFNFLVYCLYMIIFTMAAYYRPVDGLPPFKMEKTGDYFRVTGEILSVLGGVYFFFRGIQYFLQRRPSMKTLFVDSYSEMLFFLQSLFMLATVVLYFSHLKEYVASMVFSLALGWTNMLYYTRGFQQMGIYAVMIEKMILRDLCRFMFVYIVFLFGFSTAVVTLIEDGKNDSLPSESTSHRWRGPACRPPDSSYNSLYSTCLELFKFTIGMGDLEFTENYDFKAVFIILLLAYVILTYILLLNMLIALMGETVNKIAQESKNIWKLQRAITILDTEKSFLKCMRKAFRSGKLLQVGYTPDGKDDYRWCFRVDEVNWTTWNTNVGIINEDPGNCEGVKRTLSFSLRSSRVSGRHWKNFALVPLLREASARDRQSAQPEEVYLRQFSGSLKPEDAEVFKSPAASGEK", "assay": "TRPV1 channel antagonism, functional assay", "format": "cell-based", "conditions": "150 μM"}, "HL-60": {"test_system": "HL-60", "assay": "Cell viability, AML model HL-60 (FIG. 9a)", "format": "cell-based", "conditions": "Homo sapiens, n=3"}, "5-lipoxygenase (5-LO)": {"molecular_target": "T3, 5-lipoxygenase (5-LO) (Homo sapiens, UniProt P09917)", "T3 sequence (P09917 1-674)": "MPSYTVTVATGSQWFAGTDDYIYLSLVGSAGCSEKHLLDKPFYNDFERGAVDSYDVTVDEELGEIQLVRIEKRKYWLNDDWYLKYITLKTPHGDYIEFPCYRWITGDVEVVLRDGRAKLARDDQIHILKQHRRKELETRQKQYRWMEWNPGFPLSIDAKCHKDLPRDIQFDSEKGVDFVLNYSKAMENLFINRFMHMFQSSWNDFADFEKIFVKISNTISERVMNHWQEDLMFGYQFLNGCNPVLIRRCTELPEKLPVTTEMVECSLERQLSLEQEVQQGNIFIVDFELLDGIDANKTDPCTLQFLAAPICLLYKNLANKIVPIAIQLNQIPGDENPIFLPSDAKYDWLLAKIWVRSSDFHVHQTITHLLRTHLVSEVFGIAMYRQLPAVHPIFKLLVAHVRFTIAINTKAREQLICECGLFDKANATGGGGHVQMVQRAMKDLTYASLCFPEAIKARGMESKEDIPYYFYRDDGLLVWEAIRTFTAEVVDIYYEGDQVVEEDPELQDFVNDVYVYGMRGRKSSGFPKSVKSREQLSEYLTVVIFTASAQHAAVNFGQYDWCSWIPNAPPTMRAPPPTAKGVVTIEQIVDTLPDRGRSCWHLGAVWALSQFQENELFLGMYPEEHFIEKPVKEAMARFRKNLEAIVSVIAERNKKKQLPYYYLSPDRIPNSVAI", "assay": "5-LO inhibition assay, Method A (Cerep), cell-free functional", "format": "biochemical", "description": "as §1"}}, "note": "Like-named read-outs stand apart in the source and are kept apart here."}
{"molecule": "CC1(C)CCC2=C(O1)c1ccccc1C(=O)C2=O", "note": "[Compound 1, 3,4-dihydro-2,2-dimethyl-2H-naphtho[1,2-b]pyran-5,6-dione]", "values": [{"measurement": "EP4 activation", "setting": "EP4", "value": 53, "unit": "%"}, {"measurement": "inhibition at 5 µM", "setting": "12-lipoxygenase (12-LO)", "value": 38, "unit": "%"}, {"measurement": "IC50", "setting": "HL-60 cells; DMSO-stimulated HL-60 cells overexpressing 5-LO, read-out: IC50 (differentiated), HL-60", "value": 0.18, "unit": "µM"}, {"measurement": "IC50", "setting": "HL-60 cells; control HL-60 cells, read-out: IC50 (control), HL-60", "value": 0.39, "unit": "µM"}, {"measurement": "inhibition at 5 µM", "setting": "[1]", "value": -13, "unit": "%"}, {"measurement": "PDE5 screening outcome", "setting": "[2]", "value": "inactivity"}, {"measurement": "TRPV1 antagonist effect", "setting": "TRPV1", "value": 63, "unit": "%"}, {"measurement": "IC50", "setting": "HL-60", "value": 2.7, "unit": "µM"}, {"measurement": "Ligand efficiency (LE), 5-LO", "setting": "5-lipoxygenase (5-LO); from IC50 2.1 μM", "value": 0.44}, {"measurement": "inhibition at 150 µM", "setting": "5-lipoxygenase (5-LO); read-out: 5-LO inhibition at the assayed concentration", "value": 96, "unit": "%"}, {"measurement": "IC50", "setting": "5-lipoxygenase (5-LO); reducing conditions", "value": 2.1, "unit": "µM"}]}
